Data taken from patent publication US12109251B2, “Satiation peptide administration” (University of Florida Research Foundation, Incorporated, priority 2009, dated 2024).

How the values were obtained:
male Balb/c mice = experiment: Territorial Resident/Intruder aggression test; type: in vivo
Description: Data presented in this report indicate that long-term expression of Peptide YY3-36, an agonist of NPY Y receptors with higher affinity for the Y2 receptor, abolish aggressive behavior in mice. To test these observations, we used the territorial Resident/Intruder (R/I) aggressive paradigm (6), a standard test for evaluating rodent aggressive behavior. The test was applied on three different occasions using different intruders. Tests were recorded and analyzed in a blind manner using the Observer v5.0 software (Noldus Information Technology) (see videos, Supplementary data) (7).
Behavioral studies: Aggression territorial-Intruder test were performed on week 24 after the treatment (6). Briefly, PYY-, or GFP-treated resident mice were individually housed for at least two weeks prior to testing. Bedding from cages was not changed during the testing period to avoid unnecessary stress. On the day of the experiment, a smaller size intruder was placed into the resident cage for 10 minutes and the resident's behavior was recorded with a video camera. Each experiment was repeated 3 times on three different occasions and with different intruders. The videos from the experiments were analyzed for non-aggressive and aggressive behavior by an expert in a blind manner using The Observer v5.0 software (Noldus Information Technology) (7).
Data was reported in mean±SEM.

mice = experiment: PYY mouth spray, food intake after 24 hours fasting; type: in vivo
Description: Synthetic PYY was purchased from Bachem, Inc USA (Cat #H-6042) and diluted in sterile H2O. Sterile un-used perfume sample vials (Saphora) were utilized to administer PYY in the form of a mouth spray. It was estimated that the volume of one spray approximates to about […].
Mice were conditioned three times to 24 hours fasting starting at the beginning of the dark cycle and ending at the end of the light cycle. At the end of the fasting cycle and as a part of conditioned routine, a sterile water spray had been administered into the mouth. All the experiments were done during the first hour of the dark cycle after fasting. Once the dark cycle started, mice were sprayed once with either PYY or sterile H2O in a total volume of […] per spray. After the treatment, mice were returned to their cages and ten minutes later pre-weighted chow was provided. One hour later, the amount of consumed chow had been recorded by measuring the leftover amount. When the experiments were repeated, mice were fasted only once a week with the control and experimental groups rotated.

| Substance | chase duration (male Balb/c mice; vs control mice) | chase events (male Balb/c mice; vs control mice) | attack duration (male Balb/c mice; vs controls) | attack latency (male Balb/c mice; vs controls) | normal social interactions manifested by sniffing (male Balb/c mice; vs controls) | threat duration (male Balb/c mice; vs controls) | threat events (male Balb/c mice; vs controls) | attack events (male Balb/c mice; week 24 after treatment, n=5, mean±SEM) [events per 10 min] | decrease in the number of attack events compared to controls (male Balb/c mice; week 24 after treatment, n=5, p<0.05) [fold] | dose response of PYY mouth spray on FI after one hour (mice; mouth spray) | less food consumed in one hour compared to H2O spray control (mice; one mouth spray, 5 ug per 100 g of body weight, after 24 h fasting, average, P=0.03) [%] |
| --- | --- | --- | --- | --- | --- | --- | --- | --- | --- | --- | --- |
| PYY3-36: endogenous NPY Y2 receptor agonist; salivary level raised long-term by rAAV-PYY in the treated mice | decrease | decrease | significant decrease | significant increase | did not change | significant decrease | significant decrease | 0.07±0.067 | 44 | – | – |
| PYY: Synthetic PYY purchased from Bachem (Cat #H-6042), diluted in sterile H2O, given as a mouth spray [Peptide YY] | – | – | – | – | – | – | – | – | – | significant PYY dose response effect | 15 |
